Measurements: US20170362283A1, “NISIN-BASED COMPOUNDS AND USE THEREOF IN THE TREATMENT OF BACTERIAL INFECTIONS” (UNIVERSITEIT UTRECHT HOLDING B.V., priority 2015, published 2017)
≈ marks a conversion by molar mass, not a printed value. Like-named read-outs stand apart in the source and are kept apart here.

How the values were obtained:
[1] = test system: B. subtilis
Procedure: (§1) Determining the MIC value is a standard technique well known to the skilled person, in particular the MIC value can be measured using method M07-A9 (CLSI standard, January 2012, Vol. 32, No. 2, “Methods for Dilution Antimicrobial Susceptibility Tests for Bacteria That Grow Aerobically”).
(§2) Different microorganisms (from glycerol stock) were plated out on blood agar and incubated at 37° C. for 24 hours. A colony was selected and 2×5 mL of TSB was inoculated. The samples and a sterile control were cultured for 16-20 hours at 37° C. Comparative compound B is nisin acting as a control. […] Comparative compounds A, D and E are also control compounds not part of the present invention.
(§3) The overnight cultures were diluted to 0.5×10^6 CFU in TSB. 50 μL of the bacterial solution was added to each well and the plates were sealed with an adhesive membrane and incubated at 37° C. for 16 hours. The next day, the plates were visually inspected for bacterial growth.

[2] = test system: E. coli
Procedure: as §1, §2, §3

[3] = test system: S. aureus
Procedure: as §1, §2, §3

[4] = test system: M. luteus; type: cell-based
Procedure: as §1
(§4) Different microorganisms (from glycerol stock) were plated out on blood agar and incubated at 37° C. for 24 hours. A colony was selected and 2×5 mL of TSB was inoculated. The samples and a sterile control were cultured for 16-20 hours at 37° C. Comparative compound B is nisin acting as a control. Comparative compound C is vancomycin, also acting as a control. Comparative compounds A, D and E are also control compounds not part of the present invention.
as §3

[5] = test system: VRE 155; type: cell-based
Procedure: as §1, §4, §3

[6] = test system: MRSA USA300; type: cell-based, Staphylococcus aureus
Procedure: as §1, §4, §3

[7] = test system: MRSA WKZ2; type: cell-based, Staphylococcus aureus
Procedure: as §1, §4, §3

[8] = Serum stability; type: in vitro ADME; details: human serum, 37° C., after 24 hours; read-out: stability in human serum, remained intact
Procedure: 2 mg/mL peptide solutions were prepared in 26% DMSO in MilliQ. Duplicate samples were prepared with […] peptide solution and […] human serum, making the final DMSO concentration 2%. The samples were incubated at 37° C., and samples were taken at t=0, 1, 2, 4 and 24 hours as follows: to 100 μL serum solution, 200 μL MeOH (containing 0.075 mg/mL ethylparaben as an internal standard) was added to precipitate the proteins. The sample was vortexed briefly and allowed to stand for 10 min at RT. The samples were then centrifuged at 13,000 rpm for 5 min, and the supernatant was taken and stored at −20° C. until analysis. Each sample was analyzed by HPLC on a C4 column. The peaks were integrated and normalized to the internal standard.

| Compound | MIC values B. subtilis ([1]; duplicate experiments) [µg/mL] | MIC values E. coli ([2]; duplicate experiments) [µg/mL] | MIC values S. aureus ([3]; duplicate experiments) [µg/mL] | MIC values M. luteus ([4]; duplicate experiments) [µg/mL] | MIC values VRE 155 ([5]; duplicate experiments) [µg/mL] | MIC values MRSA USA300 ([6]; duplicate experiments) [µg/mL] | MIC values MRSA WKZ2 ([7]; duplicate experiments) [µg/mL] | remaining at 24 h, 0.15 mg/mL [8] [%] | MIC values B. subtilis [1] [µg/mL] | MIC values E. coli [2] [µg/mL] | MIC values S. aureus [3] [µg/mL] | MIC values M. luteus [4] [µg/mL] | MIC values VRE 155 [5] [µg/mL] | MIC values MRSA USA300 ([6]; USA300) [µg/mL] | MIC values MRSA WKZ2 ([7]; WKZ2) [µg/mL] |
| --- | --- | --- | --- | --- | --- | --- | --- | --- | --- | --- | --- | --- | --- | --- | --- |
| C=C1NC(=O)[C@H]([C@@H](C)CC)NC(=O)[C@H](NC(=O)C(=CC)NC(=O)[C@@H](N)[C@@H](C)CC)CSC[C@@H](C(=O)N[C@H]2C(=O)N3CCC[C@H]3C(=O)NCC(=O)N[C@H](C(=O)N[C@@H](CCCCN)C(=O)NCCCCCC)CS[C@H]2C)NC(=O)[C@H](CC(C)C)NC1=O [(2)] | 32 (≈ 25.9 µM) | >64 | >64 | 2 (≈ 1.62 µM) |  |  |  |  |  |  |  |  |  |  |  |
| C=C1NC(=O)[C@H]([C@@H](C)CC)NC(=O)[C@H](NC(=O)C(=CC)NC(=O)[C@@H](N)[C@@H](C)CC)CSC[C@@H](C(=O)N[C@H]2C(=O)N3CCC[C@H]3C(=O)NCC(=O)N[C@H](C(=O)N[C@@H](CCCCN)C(=O)NCCCCCCCCCC)CS[C@H]2C)NC(=O)[C@H](CC(C)C)NC1=O [(6)] | 4 to 8 | 64 (≈ 49.6 µM) | 16 (≈ 12.4 µM) | 2 (≈ 1.55 µM) | 8 (≈ 6.2 µM) | 16 (≈ 12.4 µM) | 16 (≈ 12.4 µM) | 94 |  |  |  |  |  |  |  |
| C=C1NC(=O)[C@H]([C@@H](C)CC)NC(=O)[C@H](NC(=O)C(=CC)NC(=O)[C@@H](N)[C@@H](C)CC)CSC[C@@H](C(=O)N[C@H]2C(=O)N3CCC[C@H]3C(=O)NCC(=O)N[C@H](C(=O)N[C@@H](CCCCN)C(=O)NC/C=C(\C)CC/C=C(\C)CCC=C(C)C)CS[C@H]2C)NC(=O)[C@H](CC(C)C)NC1=O [(12)] | 4 (≈ 2.95 µM) | >64 | 8 (≈ 5.91 µM) | 2 (≈ 1.48 µM) | 8 (≈ 5.91 µM) | 16 (≈ 11.8 µM) | 16 (≈ 11.8 µM) | > 50 |  |  |  |  |  |  |  |
| C=C1NC(=O)[C@H]([C@@H](C)CC)NC(=O)[C@H](NC(=O)C(=CC)NC(=O)[C@@H](N)[C@@H](C)CC)CSC[C@@H](C(=O)N[C@H]2C(=O)N3CCC[C@H]3C(=O)NCC(=O)N[C@H](C(=O)N[C@@H](CCCCN)C(=O)N[C@@H](Cc3ccc(O)cc3)C(=O)NCCCCCCCCCC)CS[C@H]2C)NC(=O)[C@H](CC(C)C)NC1=O [(18)] | 4 (≈ 2.75 µM) | >64 | 4 to 8 |  | 2 (≈ 1.38 µM) | 8 (≈ 5.51 µM) |  |  |  |  |  |  |  |  |  |
| C=C1NC(=O)[C@H]([C@@H](C)CC)NC(=O)[C@H](NC(=O)C(=CC)NC(=O)[C@@H](N)[C@@H](C)CC)CSC[C@@H](C(=O)N[C@H]2C(=O)N3CCC[C@H]3C(=O)NCC(=O)N[C@H](C(=O)N[C@@H](CCCCN)C(=O)NCCCn3cc(CCC(=O)N(CCCCCCCCCC)CCCCCCCCCC)nn3)CS[C@H]2C)NC(=O)[C@H](CC(C)C)NC1=O [Compound (24) with R1-group (b)] |  |  |  |  |  |  |  |  | >64 | >64 | >64 | 8 (≈ 4.97 µM) |  |  |  |
| C=C1NC(=O)[C@H]([C@@H](C)CC)NC(=O)[C@H](NC(=O)C(=CC)NC(=O)[C@@H](N)[C@@H](C)CC)CSC[C@@H](C(=O)N[C@H]2C(=O)N3CCC[C@H]3C(=O)NCC(=O)N[C@H](C(=O)N[C@@H](CCCCN)C(=O)NCCCn3cc(CCC(=O)NC/C=C(\C)CC/C=C(\C)CCC=C(C)C)nn3)CS[C@H]2C)NC(=O)[C@H](CC(C)C)NC1=O [Compound (24) with R1-group (d)] |  |  |  |  |  |  |  |  | 32 (≈ 20.9 µM) | >64 | 64 (≈ 41.7 µM) | 2 to 4 |  |  |  |
| C=C1NC(=O)[C@H]([C@@H](C)CC)NC(=O)[C@H](NC(=O)C(=CC)NC(=O)[C@@H](N)[C@@H](C)CC)CSC[C@@H](C(=O)N[C@H]2C(=O)N3CCC[C@H]3C(=O)NCC(=O)N[C@H](C(=O)N[C@@H](CCCCN)C(=O)NCCCn3cc(CNC(=O)c4ccc(-c5ccc(-c6ccccc6)cc5)cc4)nn3)CS[C@H]2C)NC(=O)[C@H](CC(C)C)NC1=O [Compound (24) with R1-group (e)] |  |  |  |  |  |  |  |  | 4 (≈ 2.59 µM) | >64 | 8 (≈ 5.18 µM) | 2 (≈ 1.3 µM) | 8 (≈ 5.18 µM) | 8 (≈ 5.18 µM) | 8 (≈ 5.18 µM) |
| C=C1NC(=O)[C@H]([C@@H](C)CC)NC(=O)[C@H](NC(=O)C(=CC)NC(=O)[C@@H](N)[C@@H](C)CC)CSC[C@@H](C(=O)N[C@H]2C(=O)N3CCC[C@H]3C(=O)NCC(=O)N[C@H](C(=O)N[C@@H](CCCCN)C(=O)O)CS[C@H]2C)NC(=O)[C@H](CC(C)C)NC1=O [Compound A, nisin [1-12], reference compound] | >128 | >128 | >128 | 8 to 16 | >128 | >128 | >128 |  |  |  |  |  |  |  |  |
